Data reported in ChEMBL document CHEMBL1201862, “PubChem BioAssay data set” (2004).
Activity calls are given as the source filed them.

Tests used:
[1] = growth suppression of beta-catenin-knockout colon cells, dose response, cell-based, HCT116, human colon tumor (AID 1045); assay type: functional;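 further: HCT116 colon tumor cells with beta catenin knocked out; cells exposed to compound for 60 hours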
[2] = growth suppression of PTEN-null colon cells, dose response, cell-based, HCT116 PTEN knockout (AID 1047); assay type: functional;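 further: HCT116 colon tumor cells with PTEN knocked out; cells exposed to compound for 60 hours before readout; potency for loss of cell viability measured by luminescence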
[3] = A Cell Based Secondary Assay To Explore Cytotoxicity of Compounds that Sensitize Mycobacterium Tuberculosis to Beta-Lactam Antibiotics.; assay type: functional
[4] = LGR2 antagonists, dose response, cell-based, HEK293, CRE-luciferase reporter, cherry pick, set 2 (AID 743343); assay type: functional;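 further: transfected cells were stimulated with diluted bursicon conditioned medium after compound addition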
[5] = MC4R antagonists, dose response, counter-screen for LGR2 antagonist project, cell-based, plate reader, cherry pick (AID 743444); assay type: functional;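 further: transfected HEK 293 cells stimulated with alpha-MSH peptide; potency of inhibitors of the alpha-MSH evoked signal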
[6] = A549 cell cytotoxicity, dose response, cytotoxicity control, plate reader, cherry-pick, antagonist series (AID 743412); assay type: functional, cell-based
Cytochrome P450 2C19 = Cytochrome P450 2C19 (Homo sapiens, UniProt P33261); test: Cytochrome panel assay with activity outcomes. Panel member name: p450-cyp2c19 Compounds with AC50 equal or less than 10 uM are considered active; assay type: functional; conditions: read-out: AC50
Sequence of Cytochrome P450 2C19 (P33261 whole entry): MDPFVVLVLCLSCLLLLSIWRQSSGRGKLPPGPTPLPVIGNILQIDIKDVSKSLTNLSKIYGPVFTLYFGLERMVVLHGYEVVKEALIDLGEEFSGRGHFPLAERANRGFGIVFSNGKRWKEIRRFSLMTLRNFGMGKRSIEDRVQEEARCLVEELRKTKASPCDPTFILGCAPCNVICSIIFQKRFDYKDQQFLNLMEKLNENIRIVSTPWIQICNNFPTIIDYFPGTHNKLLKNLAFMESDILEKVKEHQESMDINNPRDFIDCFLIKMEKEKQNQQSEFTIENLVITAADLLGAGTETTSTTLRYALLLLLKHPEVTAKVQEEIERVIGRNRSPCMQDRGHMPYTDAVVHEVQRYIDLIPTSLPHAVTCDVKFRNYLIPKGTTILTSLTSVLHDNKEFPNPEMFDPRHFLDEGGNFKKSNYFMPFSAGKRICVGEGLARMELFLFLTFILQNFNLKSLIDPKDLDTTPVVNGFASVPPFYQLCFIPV

[7] = cytotoxicity in HEK-293T cells, dose response, cytotoxicity control for TCR NF-kB inhibitor project, luminescence, T-cell screen hits (AID 489026); assay type: functional, cell-based;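 further: cells exposed to compound about 14 hours before the viability readout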
SN12K1 = test: cells; assay type: functional; conditions: Homo sapiens
P388/ADR = test: cells; assay type: functional; conditions: Mus musculus
[8] = ZM109 Env clade C HIV-1 fusion inhibitors, dose response, HeLa effector, CEM target cells, luciferase, cherry-pick (AID 652058); assay type: functional, cell-based
[9] = inhibitors of clade B AD8 Env fusion, dose response, cell-based, cherry-pick (AID 652062); assay type: functional;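 further: luciferase signal from cell-cell fusion driven by HIV-1 clade B AD8 Env; potency is for inhibitors of fusion seen as a drop in luminescence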
[10] = P. falciparum ATP4 D1247Y mutant growth inhibitors, dose response, NITD609-resistant line, SYBR Green, dry powder (AID 1159571); assay type: functional, cell-based;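 further: parasites synchronized at ring stage by sorbitol before testing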
[11] = P. falciparum 3D7-ScDHODH growth inhibitors, dose response, SYBR Green, dry powder samples (AID 1159570); assay type: functional, cell-based;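 further: parasite growth measured after 72 hours of compound exposure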
[12] = P. falciparum Dd2 growth inhibitors, dose response, SYBR Green, cherry-picked samples (AID 1159567); assay type: functional, cell-based
[13] = inhibitors of HIV Env-driven cell fusion, dose response, cherry-pick (AID 652057); assay type: functional, cell-based
[14] = P. falciparum Dd2 growth inhibitors, dose response, SYBR Green, dry powder samples (AID 1159566); assay type: functional, cell-based;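 further: potency for growth inhibition with lower SYBR green DNA signal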
[15] = tested on: Streptococcus sp. 'group A'; test: growth inhibition of control SK(-) GAS strain, dose response, counter-screen for streptokinase expression inhibitor project, luminescence, kanamycin, BacTiterGlo, confirmation (AID 1900); assay type: functional, organism-based
[16] = molecular target: T1, Sentrin-specific protease 6 (Homo sapiens, UniProt Q9GZR1); assay type: functional;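 further: Luminescence-based dose-response confirmatory assay of SENP6 inhibition, following up an ultra-high-throughput screen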
T1 sequence (Q9GZR1 whole entry): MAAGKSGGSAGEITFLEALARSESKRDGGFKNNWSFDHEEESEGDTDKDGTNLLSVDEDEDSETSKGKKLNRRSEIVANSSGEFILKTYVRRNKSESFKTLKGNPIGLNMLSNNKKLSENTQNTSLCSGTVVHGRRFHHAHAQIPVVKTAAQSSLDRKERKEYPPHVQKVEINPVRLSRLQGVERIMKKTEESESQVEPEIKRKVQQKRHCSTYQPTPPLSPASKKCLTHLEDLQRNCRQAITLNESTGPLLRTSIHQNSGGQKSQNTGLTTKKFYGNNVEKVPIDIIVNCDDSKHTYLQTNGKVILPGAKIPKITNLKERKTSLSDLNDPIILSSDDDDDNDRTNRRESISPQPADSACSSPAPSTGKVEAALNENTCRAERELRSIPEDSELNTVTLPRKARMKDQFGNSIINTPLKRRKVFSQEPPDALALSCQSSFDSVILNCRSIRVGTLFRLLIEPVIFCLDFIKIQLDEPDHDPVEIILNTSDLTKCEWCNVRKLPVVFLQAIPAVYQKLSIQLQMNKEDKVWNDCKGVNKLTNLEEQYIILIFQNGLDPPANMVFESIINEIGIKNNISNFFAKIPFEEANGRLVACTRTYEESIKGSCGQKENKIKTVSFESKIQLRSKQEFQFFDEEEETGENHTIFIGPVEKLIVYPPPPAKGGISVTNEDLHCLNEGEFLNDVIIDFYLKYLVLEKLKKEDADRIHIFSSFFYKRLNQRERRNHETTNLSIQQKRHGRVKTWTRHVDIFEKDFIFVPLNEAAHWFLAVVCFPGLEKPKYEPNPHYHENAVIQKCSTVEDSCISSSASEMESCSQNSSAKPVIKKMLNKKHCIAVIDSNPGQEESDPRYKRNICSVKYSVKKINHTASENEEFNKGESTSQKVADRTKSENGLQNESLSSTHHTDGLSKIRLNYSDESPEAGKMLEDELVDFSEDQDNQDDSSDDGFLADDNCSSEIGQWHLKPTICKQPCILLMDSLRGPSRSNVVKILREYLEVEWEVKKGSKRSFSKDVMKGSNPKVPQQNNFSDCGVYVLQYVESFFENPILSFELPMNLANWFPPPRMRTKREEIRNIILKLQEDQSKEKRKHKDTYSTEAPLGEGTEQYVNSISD

Streptococcus = test: Group A Streptococcus viability loss, dose response, counter-screen for streptokinase expression inhibitor project, luminescence, BacTiterGlo (AID 1915); assay type: functional, organism-based;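 further: potency for reduction of bacterial viability or growth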
[17] = molecular target: T2, Sentrin-specific protease 8 (Homo sapiens, UniProt Q96LD8); assay type: functional;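 further: luminescence read-out of SENP8 inhibition, dose-response confirmation following an ultra-high-throughput screen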
T2 sequence (Q96LD8 whole entry): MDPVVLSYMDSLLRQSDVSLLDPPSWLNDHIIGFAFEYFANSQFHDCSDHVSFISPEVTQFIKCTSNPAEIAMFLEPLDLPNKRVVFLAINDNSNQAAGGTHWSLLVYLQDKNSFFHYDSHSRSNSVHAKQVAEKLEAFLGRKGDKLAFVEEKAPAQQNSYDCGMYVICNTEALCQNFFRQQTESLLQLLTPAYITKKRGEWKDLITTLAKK

Caspase-3 = molecular target: T3, Caspase-3 (Homo sapiens, UniProt P42574); assay type: functional;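 further: Dose-response selectivity test against caspase-3 for candidate inhibitors of sentrin-specific proteases (SENPs)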
T3 sequence (P42574 whole entry): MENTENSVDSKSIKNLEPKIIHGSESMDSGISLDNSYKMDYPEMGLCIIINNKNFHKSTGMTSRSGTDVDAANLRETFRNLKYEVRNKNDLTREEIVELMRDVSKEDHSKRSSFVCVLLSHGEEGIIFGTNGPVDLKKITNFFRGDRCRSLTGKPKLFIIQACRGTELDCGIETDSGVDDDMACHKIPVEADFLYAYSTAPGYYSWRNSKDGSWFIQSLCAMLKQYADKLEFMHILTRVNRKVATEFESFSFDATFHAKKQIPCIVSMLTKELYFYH

Streptokinase A = molecular target: T4, Streptokinase A (Streptococcus pyogenes serotype M1, UniProt P10520); test: S. pyogenes streptokinase expression inhibitors, potency, dose response, plasminogen activation absorbance, OD405 (AID 1914); assay type: functional, Streptococcus pyogenes M1 GAS;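 further: secreted streptokinase activity via plasminogen activation per viability signal from cell pellet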
T4 sequence (P10520 whole entry): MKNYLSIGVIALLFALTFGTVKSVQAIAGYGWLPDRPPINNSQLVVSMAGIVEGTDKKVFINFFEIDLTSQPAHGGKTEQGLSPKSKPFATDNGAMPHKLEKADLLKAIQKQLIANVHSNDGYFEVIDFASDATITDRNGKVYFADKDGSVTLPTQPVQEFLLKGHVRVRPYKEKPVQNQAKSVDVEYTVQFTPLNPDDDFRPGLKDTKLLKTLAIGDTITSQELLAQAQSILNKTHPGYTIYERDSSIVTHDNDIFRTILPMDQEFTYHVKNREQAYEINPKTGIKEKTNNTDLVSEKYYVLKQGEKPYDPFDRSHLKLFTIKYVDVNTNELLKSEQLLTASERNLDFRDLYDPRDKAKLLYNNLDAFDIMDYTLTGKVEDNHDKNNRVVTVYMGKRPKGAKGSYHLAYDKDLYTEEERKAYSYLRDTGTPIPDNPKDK

[18] = molecular target: T5, Sentrin-specific protease 7 (Homo sapiens, UniProt Q9BQF6); assay type: functional;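 further: Luminescence-based dose-response confirmation of ultra-high-throughput screening hits, measuring inhibition of SENP7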
T5 sequence (Q9BQF6 whole entry): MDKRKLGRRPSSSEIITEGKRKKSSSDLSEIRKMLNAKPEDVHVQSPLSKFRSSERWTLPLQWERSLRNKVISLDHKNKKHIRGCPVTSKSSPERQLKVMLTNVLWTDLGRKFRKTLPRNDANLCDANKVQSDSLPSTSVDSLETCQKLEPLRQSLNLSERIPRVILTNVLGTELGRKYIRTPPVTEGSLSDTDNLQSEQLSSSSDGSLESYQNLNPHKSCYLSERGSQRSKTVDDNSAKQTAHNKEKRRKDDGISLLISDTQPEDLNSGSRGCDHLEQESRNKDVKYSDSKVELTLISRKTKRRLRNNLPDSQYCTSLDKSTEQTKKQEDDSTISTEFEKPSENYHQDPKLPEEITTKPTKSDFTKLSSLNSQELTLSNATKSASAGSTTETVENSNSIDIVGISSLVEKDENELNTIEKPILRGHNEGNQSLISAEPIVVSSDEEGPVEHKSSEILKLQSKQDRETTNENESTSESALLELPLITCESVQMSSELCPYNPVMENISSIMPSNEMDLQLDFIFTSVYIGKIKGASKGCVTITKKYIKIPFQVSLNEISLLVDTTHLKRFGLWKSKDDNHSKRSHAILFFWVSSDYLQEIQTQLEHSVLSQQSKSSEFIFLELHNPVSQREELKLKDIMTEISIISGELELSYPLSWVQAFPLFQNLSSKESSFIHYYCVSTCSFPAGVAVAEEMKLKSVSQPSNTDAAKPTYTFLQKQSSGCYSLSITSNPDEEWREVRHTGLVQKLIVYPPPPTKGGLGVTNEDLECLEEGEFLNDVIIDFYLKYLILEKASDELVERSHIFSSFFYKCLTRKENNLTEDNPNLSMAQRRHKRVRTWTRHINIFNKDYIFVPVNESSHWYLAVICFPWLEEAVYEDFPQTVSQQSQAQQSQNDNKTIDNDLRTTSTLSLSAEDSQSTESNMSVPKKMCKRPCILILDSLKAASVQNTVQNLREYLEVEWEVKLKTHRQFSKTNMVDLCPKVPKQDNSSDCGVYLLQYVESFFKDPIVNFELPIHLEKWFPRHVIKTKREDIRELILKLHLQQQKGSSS

## COc1ccc(C(=O)Nc2ccccc2C(=O)NC(C(=O)NCc2ccco2)C(C)C)cc1 (configuration not stated)
[1]
  EC50: 8.16 µM (active)
[2]
  EC50: 4.63 µM (active)
[3]
  CC50: 16.9 µM (active)

## Cc1ccc(S(=O)(=O)N2CCCCC2)cc1NC(=O)c1ccc2c(=O)n3c(nc2c1)CCCCC3
[4]
  AC50: 12.8 µM (active)
[5]
  AC50: 12.4 µM (active)
[6]
  AC50: 26.8 µM (active)

## Cc1ccc(-n2c(SCC(=O)NCc3ccco3)nc3sc4c(c3c2=O)CC(C)(C)SC4)cc1
Cytochrome P450 2C19
  AC50: 8.91 µM (inconclusive)
[3]
  CC50: > 40 µM (active)

## CCNC(=O)CCn1nc(-c2ccc(Cl)cc2)c2ccccc2c1=O
[3]
  CC50: > 40 µM (active)

## CCCC[C@@H](C)C[C@@H](C)C(=O)N(C)[C@@H](CC(C)C)C(=O)N[C@H](C(=O)N(C)[C@H](C(=O)N1C[C@@H](O)C[C@H]1C(=O)N1C(=O)C=C[C@@H]1C)C(C)C)C(C)OC(C)=O (some centres not stated)
[7]
  IC50: 18.6 µM (active)

## C=C1C(O)C2(O)OCC34C(CC5C(C)=CC(=O)C(O)C5(C)C23)OC(=O)C(OC(=O)C/C=C(\C)CCCCC)C14 (configuration not stated)
SN12K1
  GI50: 12.5 nM (active)
P388/ADR
  GI50: 93.3 nM (active)

## C[C@@H]1CN([C@@H](C)CO)C(=O)c2cccc(NC(=O)c3ccc(-c4nccs4)cc3)c2O[C@H]1CN(C)CC1CC1
[8]
  AC50: 40.2 µM (active)

## COc1ccc(S(=O)(=O)Nc2ccc3c(c2)CC(=O)N([C@H](C)CO)C[C@H](C)[C@H](CN(C)S(=O)(=O)c2ccc(C)cc2)O3)cc1
[9]
  AC50: 1.01 µM (active)
[10]
  AC50: 1.6 µM (active)
[11]
  AC50: 1.89 µM (active)
[12]
  AC50: 1.89 µM (active)
[13]
  AC50: < 260 nM (active)
[14]
  AC50: 1.88 µM (active)
[8]
  AC50: 0.33 µM (active)

## CN(C)c1ccc(/C=N/Nc2nc3ccccc3o2)cc1
[15]
  EC50: > 150 µM (not active)
[16]
  IC50: 1.72 µM (active)
Streptococcus
  EC50: > 150 µM (not active)
[17]
  IC50: 1.74 µM (active)
Caspase-3
  IC50: 2.05 µM (active)
Streptokinase A
  EC50: > 150 µM (not active)
[18]
  IC50: < 1.55 µM (active)
